Experimental data from ChEMBL document CHEMBL4765420, “Design, synthesis and biological evaluation of novel HDAC inhibitors with improved pharmacokinetic profile in breast cancer” (Eur J Med Chem, 2020).
Active and inactive are the calls of the source. The rule behind the calls is not given here.

Experiments:
[1] = target: T1, Protein deacetylase HDAC6 (Homo sapiens, UniProt Q9UBN7); assay: Inhibition of recombinant human His-tagged HDAC6 expressed in baculovirus infected insect cells using Ac-Leu-Gly-Lys(Ac)-AMC as substrate measured after 30 mins by fluorescence assay
T1 sequence (Q9UBN7 whole entry): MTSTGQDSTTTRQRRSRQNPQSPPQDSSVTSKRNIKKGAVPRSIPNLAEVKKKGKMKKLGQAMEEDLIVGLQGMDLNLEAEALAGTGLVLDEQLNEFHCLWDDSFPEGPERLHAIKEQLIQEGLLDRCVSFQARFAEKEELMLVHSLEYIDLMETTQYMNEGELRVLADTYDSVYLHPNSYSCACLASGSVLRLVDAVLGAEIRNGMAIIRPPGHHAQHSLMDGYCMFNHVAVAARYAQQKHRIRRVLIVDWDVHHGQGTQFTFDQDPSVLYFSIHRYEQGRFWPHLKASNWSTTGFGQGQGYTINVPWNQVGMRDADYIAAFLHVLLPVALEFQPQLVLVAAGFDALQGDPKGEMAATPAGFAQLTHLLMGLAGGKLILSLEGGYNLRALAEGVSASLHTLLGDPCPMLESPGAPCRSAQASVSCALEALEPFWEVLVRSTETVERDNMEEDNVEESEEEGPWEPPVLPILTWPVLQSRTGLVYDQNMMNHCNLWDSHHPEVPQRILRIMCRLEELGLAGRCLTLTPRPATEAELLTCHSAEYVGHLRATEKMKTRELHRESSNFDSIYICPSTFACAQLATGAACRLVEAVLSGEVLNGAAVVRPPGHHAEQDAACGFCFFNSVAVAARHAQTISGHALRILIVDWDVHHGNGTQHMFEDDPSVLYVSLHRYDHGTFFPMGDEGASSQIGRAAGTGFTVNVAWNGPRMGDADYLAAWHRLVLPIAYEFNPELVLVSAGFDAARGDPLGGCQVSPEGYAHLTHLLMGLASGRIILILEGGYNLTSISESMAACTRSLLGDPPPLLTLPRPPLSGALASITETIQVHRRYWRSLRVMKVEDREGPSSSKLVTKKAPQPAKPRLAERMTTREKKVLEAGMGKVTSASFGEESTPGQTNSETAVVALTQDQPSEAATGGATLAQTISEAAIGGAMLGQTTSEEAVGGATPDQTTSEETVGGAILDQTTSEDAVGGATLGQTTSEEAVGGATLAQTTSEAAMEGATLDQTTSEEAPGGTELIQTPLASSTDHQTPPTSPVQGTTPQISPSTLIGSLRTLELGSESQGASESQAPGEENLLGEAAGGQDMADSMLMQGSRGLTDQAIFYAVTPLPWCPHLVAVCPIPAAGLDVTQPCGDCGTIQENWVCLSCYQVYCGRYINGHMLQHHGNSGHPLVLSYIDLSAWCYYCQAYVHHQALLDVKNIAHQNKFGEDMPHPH

MDA-MB-231 [2] = assay: Antiproliferative activity against human MDA-MB-231 cells measured after 24 hrs by MTT assay; format: functional, cell-based; conditions: MDA-MB-231, 24 h
Histone deacetylase 8 = target: T2, Histone deacetylase 8 (Homo sapiens, UniProt Q9BY41); assay: Inhibition of recombinant human full-length C-terminal His-tagged HDAC8 expressed in baculovirus infected Sf9 insect cells using Ac-Leu-Gly-Lys(Tfa)-AMC as substrate measured after 30 mins by fluorescence assay
T2 sequence (Q9BY41 whole entry): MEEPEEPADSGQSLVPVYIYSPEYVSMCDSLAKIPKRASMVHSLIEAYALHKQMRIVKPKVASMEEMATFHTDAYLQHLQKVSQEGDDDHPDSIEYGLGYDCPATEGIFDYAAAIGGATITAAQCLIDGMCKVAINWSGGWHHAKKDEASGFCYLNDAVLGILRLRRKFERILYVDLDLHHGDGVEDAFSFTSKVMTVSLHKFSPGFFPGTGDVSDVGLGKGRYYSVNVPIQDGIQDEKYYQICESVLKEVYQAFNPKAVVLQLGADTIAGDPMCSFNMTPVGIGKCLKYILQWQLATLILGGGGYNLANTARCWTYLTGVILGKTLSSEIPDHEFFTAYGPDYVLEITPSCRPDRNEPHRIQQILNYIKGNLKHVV

Histone deacetylase 5 = Histone deacetylase 5 (Homo sapiens, UniProt Q9UQL6); assay: Inhibition of recombinant human full-length N-terminal GST-tagged HDAC5 expressed in baculovirus infected Sf9 insect cells using AcLeu-Gly-Lys(Tfa)-AMC as substrate measured after 30 mins by fluorescence assay
MDA-MB-231 [3] = assay: Induction of apoptosis in human MDA-MB-231 cells measured after 24 hrs by Annexin-V/propidium iodide staining based flow cytometry; format: functional, cell-based
MDA-MB-231 [4] = assay: Induction of apoptosis in human MDA-MB-231 cells assessed as viable cells at 2.5 uM measured after 24 hrs by Annexin-V/propidium iodide staining based flow cytometry (reference value: 95.68 to 98.38%); format: functional; conditions: read-out: Activity
MDA-MB-231 [5] = assay: Induction of apoptosis in human MDA-MB-231 cells assessed as viable cells at 5 uM measured after 24 hrs by Annexin-V/propidium iodide staining based flow cytometry (reference value: 95.68 to 98.38%); format: functional; conditions: read-out: Activity
MDA-MB-231 [6] = assay: Induction of apoptosis in human MDA-MB-231 cells assessed as early apoptotic cells at 5 uM measured after 24 hrs by Annexin-V/propidium iodide staining based flow cytometry (reference value: 0.69 to 0.92%); format: functional
MDA-MB-231 [7] = assay: Induction of apoptosis in human MDA-MB-231 cells assessed as late apoptotic cells at 5 uM measured after 24 hrs by Annexin-V/propidium iodide staining based flow cytometry (reference value: 0.71 to 2.94%); format: functional
MDA-MB-231 [8] = assay: Induction of apoptosis in human MDA-MB-231 cells assessed as viable cells at 10 uM measured after 24 hrs by Annexin-V/propidium iodide staining based flow cytometry (reference value: 95.68 to 98.38%); format: functional; conditions: read-out: Activity
MDA-MB-231 [9] = assay: Induction of apoptosis in human MDA-MB-231 cells assessed as late apoptotic cells at 10 uM measured after 24 hrs by Annexin-V/propidium iodide staining based flow cytometry (reference value: 0.71 to 2.94%); format: functional
MDA-MB-231 [10] = assay: Induction of apoptosis in human MDA-MB-231 cells assessed as necrotic cells at 10 uM measured after 24 hrs by Annexin-V/propidium iodide staining based flow cytometry (reference value: 0.22 to 0.46%); format: functional
MDA-MB-231 [11] = assay: Induction of apoptosis in human MDA-MB-231 cells assessed as down regulation of Bcl-2 expression at 2.5 to 10 uM measured after 24 hrs by Western blot analysis; format: functional, cell-based; conditions: dose 2.5-10 µM
MDA-MB-231 [12] = assay: Inhibition of cell migration in human MDA-MB-231 cells assessed as increase in E-cadherin expression at 2.5 to 10 uM measured after 24 hrs Western blot analysis; format: functional, cell-based; conditions: dose 2.5-10 µM
MDA-MB-231 [13] = assay: Inhibition of cell migration in human MDA-MB-231 cells assessed as decrease in MMP2 expression at 2.5 to 10 uM measured after 24 hrs Western blot analysis; format: functional, cell-based; conditions: dose 2.5-10 µM
MDA-MB-231 [14] = assay: Induction of autophagy in human MDA-MB-231 cells expressing GFP-mRFP-LC3 assessed as increase in LC3 punta aggregation at 2.5 to 10 uM measured after 24 hrs by immunofluorescence assay; format: functional, cell-based; conditions: dose 2.5-10 µM

Sequence of Histone deacetylase 5 (Q9UQL6 whole entry): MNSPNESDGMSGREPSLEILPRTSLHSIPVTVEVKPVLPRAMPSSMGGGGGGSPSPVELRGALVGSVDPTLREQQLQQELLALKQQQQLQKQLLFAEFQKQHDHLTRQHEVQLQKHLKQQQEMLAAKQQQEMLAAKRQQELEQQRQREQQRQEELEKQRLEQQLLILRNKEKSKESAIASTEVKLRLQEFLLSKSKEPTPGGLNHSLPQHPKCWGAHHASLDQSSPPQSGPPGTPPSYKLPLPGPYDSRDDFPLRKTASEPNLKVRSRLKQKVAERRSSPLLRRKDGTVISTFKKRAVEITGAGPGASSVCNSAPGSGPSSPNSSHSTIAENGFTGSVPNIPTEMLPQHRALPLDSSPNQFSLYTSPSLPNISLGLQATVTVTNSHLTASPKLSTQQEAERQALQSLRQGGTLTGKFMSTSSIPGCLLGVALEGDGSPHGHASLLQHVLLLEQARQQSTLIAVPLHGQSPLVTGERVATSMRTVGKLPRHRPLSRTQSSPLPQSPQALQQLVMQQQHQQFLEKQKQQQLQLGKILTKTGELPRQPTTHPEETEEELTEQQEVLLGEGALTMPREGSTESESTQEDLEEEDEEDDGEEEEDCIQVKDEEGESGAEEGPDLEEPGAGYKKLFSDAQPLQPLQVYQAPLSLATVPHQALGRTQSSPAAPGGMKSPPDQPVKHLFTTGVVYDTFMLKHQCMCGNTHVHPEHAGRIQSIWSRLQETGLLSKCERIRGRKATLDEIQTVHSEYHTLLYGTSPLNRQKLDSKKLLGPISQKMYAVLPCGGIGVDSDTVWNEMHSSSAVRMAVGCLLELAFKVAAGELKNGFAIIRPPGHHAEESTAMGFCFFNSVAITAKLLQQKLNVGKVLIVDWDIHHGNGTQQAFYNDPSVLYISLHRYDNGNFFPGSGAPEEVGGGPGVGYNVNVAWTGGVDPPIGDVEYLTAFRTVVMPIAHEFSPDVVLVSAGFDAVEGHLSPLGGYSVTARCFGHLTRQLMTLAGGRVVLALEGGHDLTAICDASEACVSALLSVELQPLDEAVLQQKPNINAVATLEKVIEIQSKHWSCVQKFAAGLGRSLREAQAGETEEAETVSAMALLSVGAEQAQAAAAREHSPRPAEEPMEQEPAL

Work on `COc1cc(OC)c2c(N3CCS(=O)(=O)CC3)nc(-c3cc(C)c(OCCCCCC(=O)NO)c(C)c3)nc2c1` yielded an IC50 [1] of 0.0553 µM, an IC50 (MDA-MB-231 [2]) of 2.37 µM and an IC50 (Histone deacetylase 8) of 0.404 µM. For the same molecule, the IC50 (Histone deacetylase 5) was 0.688 µM, the Activity (MDA-MB-231 [3]) was “Dose-dependent effect” and the viability at 2.5 µM (MDA-MB-231 [4]) was 84.2%. It also gave a viability at 5 µM (MDA-MB-231 [5]) of 71.5%, an Activity (MDA-MB-231 [6]) of 16.28% and an Activity (MDA-MB-231 [7]) of 11.79%. For the same molecule, the viability at 10 µM (MDA-MB-231 [8]) was 25.6%, the Activity (MDA-MB-231 [9]) was 35.5% and the Activity (MDA-MB-231 [10]) was 0.26%. The Activity (MDA-MB-231 [11]) was “Active”, the Activity (MDA-MB-231 [12]) was “Active” and the Activity (MDA-MB-231 [13]) was “Active”. For the same molecule, the Activity (MDA-MB-231 [14]) was “Active”.
